The source made the active and inactive calls.
Assays:
CHO = CHO cell viability loss, potency – luminescence, cytotoxicity control for TLR9-MyD88 binding inhibitor project, dose response (AID 588339); type: functional, cell-based, hamster; details: Cricetulus griseus;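 also: CHO cells stably coexpressing TLR9 and MyD88 fusions from primary screen; compound exposure lasted 48 hours before viability readout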
[1] = biological target: T1, Endoribonuclease toxin MazF (Escherichia coli K-12, UniProt P0AE70); assay: substrate-only fluorescence increase artefacts – biochemical, single-stranded RNase substrate, counter-screen for MazEF activator project, dose response (AID 588502); type: functional
T1 sequence (P0AE70 whole entry): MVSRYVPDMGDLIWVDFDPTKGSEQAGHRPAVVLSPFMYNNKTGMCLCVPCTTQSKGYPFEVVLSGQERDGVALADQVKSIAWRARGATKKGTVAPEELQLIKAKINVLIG

[2] = biological target: T1, Endoribonuclease toxin MazF; assay: activation of MazEF endoribonuclease cleavage – biochemical, fluorescence, single-stranded RNA substrate, uHTS hits, dose response (AID 588481); type: functional
[3] = biological target: Arf-GAP with SH3 domain, ANK repeat and PH domain-containing protein 1 (Homo sapiens, UniProt Q9ULH1); type: functional;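 also: biochemical fluorescence polarization dose–response screen measuring inhibition of ASAP1; ASAP1 GAP domain stimulating GTP hydrolysis by truncated human ARF1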
Chain of Arf-GAP with SH3 domain, ANK repeat and PH domain-containing protein 1 (Q9ULH1 whole entry, the tested form may be a part): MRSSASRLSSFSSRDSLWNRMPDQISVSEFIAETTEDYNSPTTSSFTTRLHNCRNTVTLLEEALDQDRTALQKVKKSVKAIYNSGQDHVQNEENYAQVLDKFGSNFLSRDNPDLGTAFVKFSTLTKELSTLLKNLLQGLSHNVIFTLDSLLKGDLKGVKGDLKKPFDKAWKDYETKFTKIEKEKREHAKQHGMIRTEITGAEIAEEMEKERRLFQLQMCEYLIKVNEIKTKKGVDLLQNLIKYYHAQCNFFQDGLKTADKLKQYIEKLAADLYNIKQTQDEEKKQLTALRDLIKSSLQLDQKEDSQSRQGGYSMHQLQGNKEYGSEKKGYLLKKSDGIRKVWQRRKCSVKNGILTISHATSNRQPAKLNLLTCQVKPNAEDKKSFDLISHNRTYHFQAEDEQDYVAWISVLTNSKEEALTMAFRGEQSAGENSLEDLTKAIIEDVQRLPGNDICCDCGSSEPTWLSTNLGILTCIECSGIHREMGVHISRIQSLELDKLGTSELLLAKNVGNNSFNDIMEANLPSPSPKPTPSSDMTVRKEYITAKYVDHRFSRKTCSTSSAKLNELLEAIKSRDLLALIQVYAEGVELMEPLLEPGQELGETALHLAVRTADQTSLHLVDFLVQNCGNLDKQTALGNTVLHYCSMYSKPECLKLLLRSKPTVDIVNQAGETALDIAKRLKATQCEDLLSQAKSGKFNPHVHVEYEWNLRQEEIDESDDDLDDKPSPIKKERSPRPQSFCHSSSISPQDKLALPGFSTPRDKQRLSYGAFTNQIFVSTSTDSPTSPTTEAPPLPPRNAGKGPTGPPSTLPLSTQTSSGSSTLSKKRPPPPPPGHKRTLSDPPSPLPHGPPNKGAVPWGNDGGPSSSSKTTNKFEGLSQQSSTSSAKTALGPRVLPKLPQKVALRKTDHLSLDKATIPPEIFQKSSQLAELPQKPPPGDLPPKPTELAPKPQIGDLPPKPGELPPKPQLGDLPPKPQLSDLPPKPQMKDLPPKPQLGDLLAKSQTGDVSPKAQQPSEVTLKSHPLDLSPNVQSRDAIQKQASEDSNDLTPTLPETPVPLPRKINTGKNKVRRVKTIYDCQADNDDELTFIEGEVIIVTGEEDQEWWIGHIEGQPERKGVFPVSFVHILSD

Beta Lactamase = Beta Lactamase (Pseudomonas aeruginosa, UniProt Q932Y6); assay: BLA reporter interference, concentration series – BLA reporter cells, FRET fluorescence, artefact control for TLR9-MyD88 binding inhibitor project, dose response (AID 588341); type: cell-based;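 also: cell based assay in CHO-K1 cells stably expressing beta-lactamase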
Chain of Beta Lactamase (Q932Y6 whole entry): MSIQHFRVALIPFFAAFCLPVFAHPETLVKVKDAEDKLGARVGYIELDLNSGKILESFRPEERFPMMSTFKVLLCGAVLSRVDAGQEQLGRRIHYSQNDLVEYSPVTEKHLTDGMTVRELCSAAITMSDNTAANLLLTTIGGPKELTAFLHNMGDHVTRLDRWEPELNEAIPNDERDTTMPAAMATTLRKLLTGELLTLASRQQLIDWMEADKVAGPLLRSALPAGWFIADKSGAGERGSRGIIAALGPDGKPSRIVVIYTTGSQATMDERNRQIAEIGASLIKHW

HEK293 = assay: EBV LMP1 TES2 canonical NF-kB signalling blockers – cell-based, HEK293, luciferase, cherry-pick, dose response (AID 588343); type: functional; details: Homo sapiens
[4] = blockers of bursicon-stimulated LGR2 cAMP reporter – cell-based, HEK293, CRE-luciferase reporter, cherry pick, set 2, dose response (AID 743343); type: functional;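 also: transfected cells were stimulated with diluted bursicon conditioned medium after compound addition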
[5] = Luminescence Cell-Based Dose Response HTS to Identify Inhibitors of 5'UTR Stem-Loop Driven Prion Protein mRNA Translation in H4 Neuroglioblastoma Cells. [Related pubchem assays: 1827 (Project Summary), 1813 (Primary HTS)]; type: functional
[6] = blockade of melanocortin 4 receptor signaling – cell-based, plate reader, cherry pick, counter-screen for LGR2 antagonist project, dose response (AID 743444); type: functional;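 also: transfected HEK 293 cells stimulated with alpha-MSH peptide; potency of inhibitors of the alpha-MSH evoked signal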
[7] = viability loss in HEK293 cells – cell-based, plate reader, cherry-picked samples, cytotoxicity control, dose response (AID 743446); type: functional
[8] = A549 cell cytotoxicity, dose response, cytotoxicity control, plate reader, cherry-pick, antagonist series (AID 743412); type: functional, cell-based
[9] = alpha-synuclein stem-loop luciferase translation blockers – H4 neuroglioma cells, luminescence, confirmation (AID 1988); type: functional, cell-based
[10] = toxicity toward HepG2 liver cells – cell-based, plate reader, cherry-pick, antagonist series, cytotoxicity control, dose response (AID 743416); type: functional
HeLa = assay: ATP-based viability loss in HeLa cells – cell-based, CellTiter-Glo luminescence, cherry-pick samples, cytotoxicity control for MITF activator project, dose response (AID 540259); type: functional; details: Homo sapiens
[11] = biological target: T2, Corticotropin-releasing factor receptor 2/Corticotropin-releasing factor-binding protein (Homo sapiens, UniProt P24387+Q13324); assay: activators of CRF receptor 2 with binding protein – uHTS hits, confirmation (AID 602473); type: functional; details: read-out: EC50_Mean
T2 sequence (Q13324 whole entry): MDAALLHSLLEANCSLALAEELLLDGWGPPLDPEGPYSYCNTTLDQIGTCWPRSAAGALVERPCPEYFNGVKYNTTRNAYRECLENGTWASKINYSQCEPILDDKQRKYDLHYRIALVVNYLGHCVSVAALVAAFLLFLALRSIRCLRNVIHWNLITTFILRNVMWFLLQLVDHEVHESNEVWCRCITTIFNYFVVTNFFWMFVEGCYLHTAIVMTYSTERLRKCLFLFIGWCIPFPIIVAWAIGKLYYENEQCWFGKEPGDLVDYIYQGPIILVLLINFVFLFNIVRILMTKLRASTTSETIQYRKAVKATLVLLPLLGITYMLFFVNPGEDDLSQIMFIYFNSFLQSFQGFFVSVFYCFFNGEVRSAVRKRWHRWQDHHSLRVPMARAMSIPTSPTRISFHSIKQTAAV
T2 sequence (P24387 whole entry): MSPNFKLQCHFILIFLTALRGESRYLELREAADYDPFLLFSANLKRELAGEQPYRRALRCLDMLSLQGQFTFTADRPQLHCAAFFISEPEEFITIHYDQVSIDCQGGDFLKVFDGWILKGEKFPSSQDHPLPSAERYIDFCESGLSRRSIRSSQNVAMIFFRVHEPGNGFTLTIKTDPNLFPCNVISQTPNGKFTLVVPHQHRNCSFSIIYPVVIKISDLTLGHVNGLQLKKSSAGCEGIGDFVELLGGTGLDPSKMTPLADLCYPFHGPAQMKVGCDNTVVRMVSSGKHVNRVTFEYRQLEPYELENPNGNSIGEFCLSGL

[12] = biological target: T2, Corticotropin-releasing factor receptor 2/Corticotropin-releasing factor-binding protein; assay: Dose Response confirmation of uHTS hits for small molecule antagonists of the CRF-binding protein and CRF-R2 receptor complex.; type: functional; details: read-out: IC50_Mean

## COc1cc2c3nnc(-c4ccc(F)cc4)c-3cn(Cc3cccc(C)c3)c2cc1OC
CHO
  IC50: 10.2 µM (inactive)
[1]
  EC50: 16.7 µM (active)
[2]
  EC50: 24.1 µM (inactive)
[3]
  IC50: 7.44 µM (active)
Beta Lactamase
  IC50: 3.92 µM (active)

## O=C(Nc1ccccn1)c1onc2c1CCCC2
HEK293
  AC50: 1.46 µM (active)
[4]
  AC50: 3.65 µM (active)
[5]
  EC50: 50.2 µM (active)
[6]
  AC50: 3.55 µM (active)
[7]
  AC50: > 52 µM (inactive)
[8]
  AC50: 45.1 µM (active)
[9]
  EC50: 4.67 µM (active)
[10]
  AC50: 15.9 µM (active)

## Nc1c(C(=O)N2CCCC2)sc2nc(-c3ccccc3)ccc12
CHO
  IC50: > 49.7 µM (inactive)
HeLa
  AC50: 197 µM (active)
Beta Lactamase
  IC50: 12.4 µM (inactive)

## COc1ccc(C(=O)Nn2c(SCC(=O)NC3CCCCC3)nc3ccccc3c2=O)cc1
HEK293
  AC50: 6.79 µM (active)
[11]
  EC50: > 53 µM (inactive)
[12]
  IC50: < 0.368 µM (active)

From ChEMBL document CHEMBL1201862, “PubChem BioAssay data set” (2004)
